# Test results from the supplement of paper PMC4862054.
# How the values were obtained:
# Assay in all cases: normalised response (% of control), CellTiter-Glo; higher = more viable cells (100 = DMSO, 0 = benzethonium chloride kill control)
# Conditions in all cases: incubation time: 72 h
# HCC1599 = system: HCC1599
# In short: (§1)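 Normalised signals at single concentrations make up the values. They come from breast cancer cell lines seeded (20 µl suspension) into 384-well plates with compound at 5 concentrations in 10-fold steps over a compound-specific 10,000-fold range, incubated 72 h, and read for CellTox Green fluorescence then CellTiter-Glo luminescence. Each plate was normalised to 0.1 % DMSO (100) and a positive kill control (0).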
# CAL-148 = system: CAL-148
# In short: as §1
# MDA-MB-453 = system: MDA-MB-453
# In short: as §1
# MDA-MB-231 = system: MDA-MB-231
# In short: as §1
# CAL-120 = system: CAL-120
# In short: as §1
# BT-549 = system: BT-549
# In short: as §1
# MCF-10A = system: MCF-10A
# In short: as §1
# BT-474 = system: BT-474
# In short: as §1
# MDA-MB-436 = system: MDA-MB-436
# In short: as §1
# CAL-85-1 = system: CAL-85-1
# In short: as §1
# CAL-51 = system: CAL-51
# In short: as §1
# DU-4475 = system: DU-4475
# In short: as §1
# HCC1143 = system: HCC1143
# In short: as §1
# MFM-223 = system: MFM-223
# In short: as §1
# HDQ-P1 = system: HDQ-P1
# In short: as §1
# MDA-MB-468 = system: MDA-MB-468
# In short: as §1
# Hs578T = system: Hs578T
# In short: as §1
# SK-BR-3 = system: SK-BR-3
# In short: as §1
# HCC1937 = system: HCC1937
# In short: as §1
Structure (SMILES),normalised response (HCC1599) [%],normalised response (CAL-148) [%],normalised response (MDA-MB-453) [%],normalised response (MDA-MB-231) [%],normalised response (CAL-120) [%],normalised response (BT-549) [%],normalised response (MCF-10A) [%],normalised response (BT-474) [%],normalised response (MDA-MB-436) [%],normalised response (CAL-85-1) [%],normalised response (CAL-51) [%],normalised response (DU-4475) [%],normalised response (HCC1143) [%],normalised response (MFM-223) [%],normalised response (HDQ-P1) [%],normalised response (MDA-MB-468) [%],normalised response (Hs578T) [%],normalised response (SK-BR-3) [%],normalised response (HCC1937) [%]
CN(c1ccccc1CNc1nc(Nc2ccc3c(c2)CC(=O)N3)ncc1C(F)(F)F)S(C)(=O)=O (1 nM),98.4,91.6,95.4,95.4,93,100,96.3,95.5,106,94.9,96.2,95.9,93,89.5,101,90.3,97.8,96,99.5
COc1cc(Nc2ncc(F)c(Nc3ccc4c(n3)NC(=O)C(C)(C)O4)n2)cc(OC)c1OC [Tamatinib] (10 nM),95.1,105,108,107,102,101,107,100,95.9,103,98.3,106,108,111,103,97.6,113,100,102
Cc1cc(C(C)Nc2ccccc2)c2nc(N3CCOCC3)cc(=O)n2c1 (stereo not given) [TGX-221] (1 nM),89.6,95.5,98.5,92.7,95.8,99.4,96.5,93.1,84,92.1,109,95.2,93.8,101,96.2,92.8,98.4,97,97.6
C[C@@H]1C=C2C(=O)O[C@@H]3CC[C@H](C1)[C@]23O [Galiellalactone] (50 nM),98.2,111,108,104,102,98.9,114,104,106,102,101,105,107,114,104,106,104,112,102
Cc1cc(C(C)Nc2ccccc2)c2nc(N3CCOCC3)cc(=O)n2c1 (stereo not given) [TGX-221] (10 nM),98.4,95,98.6,92.2,94.5,95.2,92.3,92.5,98,98.2,96.5,97.9,102,96.3,95.4,94.7,97.6,93.2,98.8
